Measurements taken from patent US4359458A, “O-β. -D (and O-α.. -D) Multigalactopyranosyl, xylopyranosyl and glucopyranosyl sulfate salts” (American Cyanamid Company, priority 1981, dated 1982).
Counter-ions that a name gives are not always drawn. Like-named read-outs stand apart in the source and are kept apart here.

Columns and labels:
[1] = system: complement system; conditions: Br. J. Exp. Pathol. 33: 327 (1952); cited from earlier work
[2] = system: shunt pathway activated by cobra venom factor; assay: Test Code 036 (C-Shunt inhibitor); format: cell-based, human; conditions: serial dilution assay, twofold dilutions; higher well number indicates higher activity; N = Negative
Excerpt: (§1) An active inhibitor protects C2 from C1 and C4; (ii) Test Code 035 (C3-C9 inhibitor)--This test determines the ability of the late components of human complement (C3-C9) to lyse EAC 142 in the presence of appropriate dilutions of the test compound. An active inhibitor protects EAC 142 from lysis by human C3-C9; (iii) Test Code 036 (C-Shunt inhibitor)--In this test human erythrocytes rendered fragile are lysed in autologous serum via the shunt pathway activated by cobra venom factor in the presence of appropriate dilutions of the test compound. Inhibition of the shunt pathway results in failure of lysis; (iv) Cap 50 Test--Here, appropriate amounts of the test compound are added to a pool of guinea pig serum in vitro, after which the undiluted serum capillary tube assay of U.S. Pat. No. 3,876,376 is run. The concentration of compound inhibiting 50% is reported; and (v) Guinea Pig Intraperitoneal Test (GPIP)--Guinea pigs weighing about 300 g are dosed intraperitoneally (i.p.) with 200 mg/kg of the test compound dissolved in saline and adjusted to pH 7-8. Approximately 0.4 ml blood samples, taken by orbital sinus puncture 30 minutes and one hour after injections, are collected directly into centrifuge tubes; 5 ml blood samples, taken by decapitation 2 hours after injection are collected directly into beakers. The samples are allowed to clot, centrifuged, and the resultant sera are assayed for complement activity using the capillary complement assay. Percent inhibition is calculated by comparison with simultaneous controls. The results of the GPIP appear in Table I together with results of test code 026, 035, 036 and Cap 50.

[3] = biological target: activated human C1 (Homo sapiens, UniProt P09871); assay: Test Code 026 (C1 inhibitor); format: biochemical; conditions: serial dilution assay, twofold dilutions; higher well number indicates higher activity
Excerpt: as §1

[4] = system: late components of human complement (C3-C9); assay: Test Code 035 (C3-C9 inhibitor); format: biochemical; conditions: serial dilution assay, twofold dilutions; higher well number indicates higher activity; N = Negative
Excerpt: as §1

[5] = system: hereditary angioneurotic edema; conditions: literature reports; cited from earlier work
[6] = system: complement activity; assay: Guinea Pig Intraperitoneal Test (GPIP); format: in vivo; conditions: Cavia porcellus, ip, 200 mg/kg i.p.
Excerpt: as §1

[7] = system: total hemolytic complement activity; conditions: both in vitro and in vivo; judged by reduction in total hemolytic complement activity; cited from earlier work

Compound: Nc1ccc2cc(S(=O)(=O)O)cc(O)c2c1N=Nc1ccc(NC(=O)Nc2ccc(N=Nc3c(N)ccc4cc(S(=O)(=O)O)cc(O)c34)c(S(=O)(=O)O)c2)cc1S(=O)(=O)O [chlorazol fast pink, 3,3'-ureylenebis [6-(2-amino-8-hydroxy-6-sulfo-1-naphthylazo)benzenesulfonic acid], tetrasodium salt]
- anti-complementary effect [1]: anti-complementary effect

Compound: O=S(=O)(O)OC[C@H]1O[C@@H](OC[C@H]2O[C@H](O[C@H]3O[C@H](CO[C@@H]4O[C@H](COS(=O)(=O)O)[C@@H](O[C@H]5O[C@H](COS(=O)(=O)O)[C@@H](O[C@H]6O[C@H](COS(=O)(=O)O)[C@@H](OS(=O)(=O)O)[C@H](OS(=O)(=O)O)[C@H]6OS(=O)(=O)O)[C@H](OS(=O)(=O)O)[C@H]5OS(=O)(=O)O)[C@H](OS(=O)(=O)O)[C@H]4OS(=O)(=O)O)[C@@H](OS(=O)(=O)O)[C@H](OS(=O)(=O)O)[C@H]3OS(=O)(=O)O)[C@H](OS(=O)(=O)O)[C@@H](OS(=O)(=O)O)[C@@H]2OS(=O)(=O)O)[C@H](OS(=O)(=O)O)[C@@H](OS(=O)(=O)O)[C@@H]1O[C@H]1O[C@H](COS(=O)(=O)O)[C@@H](O[C@H]2O[C@H](COS(=O)(=O)O)[C@@H](OS(=O)(=O)O)[C@H](OS(=O)(=O)O)[C@H]2OS(=O)(=O)O)[C@H](OS(=O)(=O)O)[C@H]1OS(=O)(=O)O [drawing 17, Glc 1α,4 glc 1α,4 glc 1β,6 glc 1α,1α' glc 1β,6 glc 1α,4 glc 1α,4 glc, hexacosakis (H-sulfate), hexacosasalt with trimethylamine]
- C-Shunt Inhibition 036 Wells [2]: 6 Wells
- Cl 026 Wells [3]: 9 Wells
- C-Late 035 Wells [4]: 1 Wells

Compound: O=S(=O)(O)OC[C@H]1O[C@@H](OC[C@H]2O[C@H](O[C@H]3O[C@H](CO[C@@H]4O[C@H](COS(=O)(=O)O)[C@@H](O[C@H]5O[C@H](COS(=O)(=O)O)[C@@H](OS(=O)(=O)O)[C@H](OS(=O)(=O)O)[C@H]5OS(=O)(=O)O)[C@H](OS(=O)(=O)O)[C@H]4OS(=O)(=O)O)[C@@H](OS(=O)(=O)O)[C@H](OS(=O)(=O)O)[C@H]3OS(=O)(=O)O)[C@H](OS(=O)(=O)O)[C@@H](OS(=O)(=O)O)[C@@H]2OS(=O)(=O)O)[C@H](OS(=O)(=O)O)[C@@H](OS(=O)(=O)O)[C@@H]1O[C@H]1O[C@H](COS(=O)(=O)O)[C@@H](OS(=O)(=O)O)[C@H](OS(=O)(=O)O)[C@H]1OS(=O)(=O)O [drawing 16, Glc 1α,4 glc 1β,6 glc 1α,1α' glc 1β,6 glc 1α,4 glc, eicosakis (H-sulfate), eicosasodium salt]
- C-Shunt Inhibition 036 Wells [2]: 6 Wells
- Cl 026 Wells [3]: 10 Wells
- C-Late 035 Wells [4]: N

Compound: NCCCCCC(=O)O [epsilon-aminocaproic acid]
- treatment of hereditary angioneurotic edema [5]: used with success

Compound: O=S(=O)(O)OC[C@H]1O[C@@H](OC[C@H]2O[C@H](O[C@H]3O[C@H](COS(=O)(=O)O)[C@@H](OS(=O)(=O)O)[C@H](OS(=O)(=O)O)[C@H]3OS(=O)(=O)O)[C@H](OS(=O)(=O)O)[C@@H](OS(=O)(=O)O)[C@@H]2OS(=O)(=O)O)[C@H](OS(=O)(=O)O)[C@@H](OS(=O)(=O)O)[C@@H]1O[C@H]1O[C@H](COS(=O)(=O)O)[C@@H](O[C@H]2O[C@H](COS(=O)(=O)O)[C@@H](O[C@H]3O[C@H](COS(=O)(=O)O)[C@@H](O[C@H]4O[C@H](COS(=O)(=O)O)[C@@H](O[C@H]5O[C@H](COS(=O)(=O)O)[C@@H](O[C@H]6O[C@H](COS(=O)(=O)O)[C@@H](OS(=O)(=O)O)[C@H](OS(=O)(=O)O)[C@H]6OS(=O)(=O)O)[C@H](OS(=O)(=O)O)[C@H]5OS(=O)(=O)O)[C@H](OS(=O)(=O)O)[C@H]4OS(=O)(=O)O)[C@H](OS(=O)(=O)O)[C@H]3OS(=O)(=O)O)[C@H](OS(=O)(=O)O)[C@H]2OS(=O)(=O)O)[C@H](OS(=O)(=O)O)[C@H]1OS(=O)(=O)O [drawing 26, glc 1α,4 (glc 1α,4)5 glc 1β,6 glc 1α,1α'glc, nonacosakis (H-sulfate), nonacosasodium salt]
- C-Shunt Inhibition 036 Wells [2]: 6 Wells
- Cl 026 Wells [3]: 10 Wells
- C-Late 035 Wells [4]: 1 Wells

Compound: O=S(=O)(O)O[C@@H]1[C@@H](OS(=O)(=O)O)[C@@H](O[C@H]2O[C@H](CO[C@@H]3OC[C@@H](OS(=O)(=O)O)[C@H](OS(=O)(=O)O)[C@H]3OS(=O)(=O)O)[C@@H](OS(=O)(=O)O)[C@H](OS(=O)(=O)O)[C@H]2OS(=O)(=O)O)O[C@H](CO[C@@H]2OC[C@@H](OS(=O)(=O)O)[C@H](OS(=O)(=O)O)[C@H]2OS(=O)(=O)O)[C@H]1OS(=O)(=O)O [drawing 14, Xyl 1β,6 glc 1α,1α' glc 1β,6 xyl, dodecakis (H-sulfate), dodecasodium salt]
- inhibition at 200 mg/kg ([6]; 0.5 h, serum 30 minutes after injection, read-out: In vivo activity (Guinea Pigs) % Inhibition Intraperitoneal, 30 minutes): 57%
- inhibition at 200 mg/kg ([6]; 1 h, serum 60 minutes after injection, read-out: In vivo activity (Guinea Pigs) % Inhibition Intraperitoneal, 60 minutes): 69%
- inhibition at 200 mg/kg ([6]; 2 h, serum 120 minutes after injection, read-out: In vivo activity (Guinea Pigs) % Inhibition Intraperitoneal, 120 minutes): 78%
- C-Shunt Inhibition 036 Wells [2]: 4 Wells
- Cl 026 Wells [3]: 11 Wells

Compound: O=S(=O)(O)OC[C@H]1O[C@@H](OC[C@H]2O[C@H](O[C@H]3O[C@H](CO[C@@H]4O[C@H](COS(=O)(=O)O)[C@@H](O[C@H]5O[C@H](COS(=O)(=O)O)[C@@H](O[C@H]6O[C@H](COS(=O)(=O)O)[C@@H](O[C@H]7O[C@H](COS(=O)(=O)O)[C@@H](O[C@H]8O[C@H](COS(=O)(=O)O)[C@@H](O[C@H]9O[C@H](COS(=O)(=O)O)[C@@H](O[C@H]%10O[C@H](COS(=O)(=O)O)[C@@H](OS(=O)(=O)O)[C@H](OS(=O)(=O)O)[C@H]%10OS(=O)(=O)O)[C@H](OS(=O)(=O)O)[C@H]9OS(=O)(=O)O)[C@H](OS(=O)(=O)O)[C@H]8OS(=O)(=O)O)[C@H](OS(=O)(=O)O)[C@H]7OS(=O)(=O)O)[C@H](OS(=O)(=O)O)[C@H]6OS(=O)(=O)O)[C@H](OS(=O)(=O)O)[C@H]5OS(=O)(=O)O)[C@H](OS(=O)(=O)O)[C@H]4OS(=O)(=O)O)[C@@H](OS(=O)(=O)O)[C@H](OS(=O)(=O)O)[C@H]3OS(=O)(=O)O)[C@H](OS(=O)(=O)O)[C@@H](OS(=O)(=O)O)[C@@H]2OS(=O)(=O)O)[C@H](OS(=O)(=O)O)[C@@H](OS(=O)(=O)O)[C@@H]1O[C@H]1O[C@H](COS(=O)(=O)O)[C@@H](O[C@H]2O[C@H](COS(=O)(=O)O)[C@@H](O[C@H]3O[C@H](COS(=O)(=O)O)[C@@H](O[C@H]4O[C@H](COS(=O)(=O)O)[C@@H](O[C@H]5O[C@H](COS(=O)(=O)O)[C@@H](O[C@H]6O[C@H](COS(=O)(=O)O)[C@@H](OS(=O)(=O)O)[C@H](OS(=O)(=O)O)[C@H]6OS(=O)(=O)O)[C@H](OS(=O)(=O)O)[C@H]5OS(=O)(=O)O)[C@H](OS(=O)(=O)O)[C@H]4OS(=O)(=O)O)[C@H](OS(=O)(=O)O)[C@H]3OS(=O)(=O)O)[C@H](OS(=O)(=O)O)[C@H]2OS(=O)(=O)O)[C@H](OS(=O)(=O)O)[C@H]1OS(=O)(=O)O [drawing 21, Glc 1α,4 (glc 1α,4)5 glc 1β,6 glc 1α,1α'glc 1β,6 glc (glc 1α,4)5 1α,4 glc, pentacontakis (H-sulfate), pentacontasalt with trimethylamine]
- C-Shunt Inhibition 036 Wells [2]: 5 Wells
- Cl 026 Wells [3]: 10 Wells
- C-Late 035 Wells [4]: N

Compound: pentosanpolysulfoester
- anticomplementary activity on human serum [7]: anticomplementary activity

Compound: NC[C@H]1CC[C@H](C(=O)O)CC1 [tranexamic acid]
- treatment of hereditary angioneurotic edema [5]: used with success

Compound: heparin
- anti-complementary effect [1]: anti-complementary effect

Compound: O=S(=O)(O)OC[C@H]1O[C@@H](OC[C@H]2O[C@H](O[C@H]3O[C@H](CO[C@@H]4O[C@H](COS(=O)(=O)O)[C@@H](O[C@H]5O[C@H](COS(=O)(=O)O)[C@@H](O[C@H]6O[C@H](COS(=O)(=O)O)[C@@H](OS(=O)(=O)O)[C@H](OS(=O)(=O)O)[C@H]6OS(=O)(=O)O)[C@H](OS(=O)(=O)O)[C@H]5OS(=O)(=O)O)[C@H](OS(=O)(=O)O)[C@H]4OS(=O)(=O)O)[C@@H](OS(=O)(=O)O)[C@H](OS(=O)(=O)O)[C@H]3OS(=O)(=O)O)[C@H](OS(=O)(=O)O)[C@@H](OS(=O)(=O)O)[C@@H]2OS(=O)(=O)O)[C@H](OS(=O)(=O)O)[C@@H](OS(=O)(=O)O)[C@@H]1O[C@H]1O[C@H](COS(=O)(=O)O)[C@@H](O[C@H]2O[C@H](COS(=O)(=O)O)[C@@H](OS(=O)(=O)O)[C@H](OS(=O)(=O)O)[C@H]2OS(=O)(=O)O)[C@H](OS(=O)(=O)O)[C@H]1OS(=O)(=O)O [drawing 19, Glc 1α,4 glc 1α,4 glc 1β,6 glc 1α,1α' glc 1β,6 glc 1α,4 glc 1α,4 glc, hexacosakis (H-sulfate), hexacosasodium salt]
- C-Shunt Inhibition 036 Wells [2]: 6 Wells
- Cl 026 Wells [3]: 9 Wells
- C-Late 035 Wells [4]: 1 Wells
